# In ChEMBL document CHEMBL1201862, “PubChem BioAssay data set” (2004):
#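 48-hour exposure; five concentrations; linearly interpolated endpoints. GI50: concentration for 50% inhibition of growth.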 The source made the active and inactive calls. Cut-off read from the data, not from the text of the source: active = GI50 up to about 1.1 µM and inactive = higher.
# Columns and labels:
# Experiment in all cases: NCI-60 cell line screen, 48 h
# UO-31 = system: UO-31
# HCC 2998 = system: HCC 2998
# OVCAR-8 = system: OVCAR-8
# SW-620 = system: SW-620
# M14 = system: M14
# NCI-H23 = system: NCI-H23
# CAKI-1 = system: CAKI-1
# SF-268 = system: SF-268
# SNB-75 = system: SNB-75
# LXFL 529 = system: LXFL 529
# HCT-116 = system: HCT-116
# A549 = system: A549
# OVCAR-3 = system: OVCAR-3
# SK-MEL-2 = system: SK-MEL-2
# EKVX = system: EKVX
SMILES,GI50 (UO-31),GI50 (HCC 2998),GI50 (OVCAR-8),GI50 (SW-620),GI50 (M14),GI50 (NCI-H23),GI50 (CAKI-1),GI50 (SF-268),GI50 (SNB-75),GI50 (LXFL 529),GI50 (HCT-116),GI50 (A549),GI50 (OVCAR-3),GI50 (SK-MEL-2),GI50 (EKVX)
Cc1ccc(/C=C/C(=O)CCN(C)C)cc1,18.3 µM (inactive),17.7 µM (inactive),15.9 µM (inactive),16.6 µM (inactive),21.5 µM (inactive),27.9 µM (inactive),13.9 µM (inactive),24.9 µM (inactive),20.1 µM (inactive),19.4 µM (inactive),18.9 µM (inactive),20.7 µM (inactive),20.3 µM (inactive),–,–
CC(C)(c1ccccc1)c1ccc(OC#N)cc1,49.1 µM (inactive),> 77.6 µM (inactive),> 100 µM (inactive),99.3 µM (inactive),> 100 µM (inactive),68.9 µM (inactive),> 95.5 µM (inactive),42 µM (inactive),15.2 µM (inactive),> 78.3 µM (inactive),34.4 µM (inactive),73.5 µM (inactive),> 100 µM (inactive),> 100 µM (inactive),> 100 µM (inactive)
O=C1C(=Cc2ccc([N+](=O)[O-])o2)C(=O)N(CCc2ccccc2)S(=O)(=O)N1CCc1ccccc1,45.3 µM (inactive),> 100 µM (inactive),28.9 µM (inactive),19.5 µM (inactive),15.4 µM (inactive),16.8 µM (inactive),–,21.8 µM (inactive),37.9 µM (inactive),16.8 µM (inactive),16.3 µM (inactive),> 100 µM (inactive),17.4 µM (inactive),16.6 µM (inactive),> 100 µM (inactive)
CN1N=C2NCCNC3=NN(C)/C(=N/CC/N=C/1S2)S3,–,–,> 100 µM (inactive),> 100 µM (inactive),> 100 µM (inactive),> 100 µM (inactive),–,> 100 µM (inactive),> 100 µM (inactive),> 100 µM (inactive),> 100 µM (inactive),> 100 µM (inactive),–,–,> 100 µM (inactive)
O=C1c2ccccc2C2CCC1c1ccccc12 (centres undefined),21.1 µM (inactive),53.1 µM (inactive),43.2 µM (inactive),39.2 µM (inactive),36.5 µM (inactive),24 µM (inactive),34.8 µM (inactive),31.1 µM (inactive),24.5 µM (inactive),36.3 µM (inactive),19.6 µM (inactive),25.2 µM (inactive),30.5 µM (inactive),32.1 µM (inactive),43.4 µM (inactive)
CC(C)Cc1cc(CCC(=O)Nc2ccccc2[N+](=O)[O-])nc(NC#N)n1,> 100 µM (inactive),> 100 µM (inactive),> 100 µM (inactive),> 100 µM (inactive),> 100 µM (inactive),> 100 µM (inactive),> 100 µM (inactive),> 100 µM (inactive),> 100 µM (inactive),> 100 µM (inactive),> 100 µM (inactive),> 100 µM (inactive),> 100 µM (inactive),–,> 100 µM (inactive)
COC(=O)C(C#N)=C1c2ccccc2Oc2ccccc21,> 100 µM (inactive),98.9 µM (inactive),43.4 µM (inactive),43.2 µM (inactive),53.8 µM (inactive),56.9 µM (inactive),> 100 µM (inactive),63 µM (inactive),42.2 µM (inactive),29.8 µM (inactive),–,> 100 µM (inactive),21.5 µM (inactive),> 100 µM (inactive),> 100 µM (inactive)
CCN(CC)CCC1CC/C(=C\c2ccc(OC)cc2)C1=O (centres undefined),58.1 µM (inactive),> 100 µM (inactive),> 100 µM (inactive),> 100 µM (inactive),35.5 µM (inactive),–,> 100 µM (inactive),> 100 µM (inactive),> 100 µM (inactive),58.5 µM (inactive),87.9 µM (inactive),> 100 µM (inactive),> 100 µM (inactive),> 100 µM (inactive),> 100 µM (inactive)
COc1cccc2c1C(=O)c1c(O)c3c(c(O)c1C2=O)C[C@@](O)(C(C)=O)C[C@@H]3OC1CC([N+]([O-])(Cc2ccccc2)Cc2ccccc2)C(O)C(C)O1 (some centres undefined),1.27 µM (inactive),1.62 µM (inactive),0.774 µM (active),1 µM (active),1.69 µM (inactive),1.3 µM (inactive),1.14 µM (inactive),–,1.48 µM (inactive),1.11 µM (active),–,1.29 µM (inactive),1.73 µM (inactive),1.98 µM (inactive),1.8 µM (inactive)
C=C[C@@]1(O)CCCC2=C(C(=O)OCC)CC[C@]21C,> 100 µM (inactive),> 100 µM (inactive),> 100 µM (inactive),54.7 µM (inactive),78.7 µM (inactive),> 100 µM (inactive),–,> 100 µM (inactive),–,> 100 µM (inactive),–,> 100 µM (inactive),> 100 µM (inactive),90.8 µM (inactive),> 100 µM (inactive)
